Test results reported in PMC7948978, “MpeV is a lyase isomerase that ligates a doubly linked phycourobilin on the β-subunit of phycoerythrin I and II in marine Synechococcus” (The Journal of Biological Chemistry, 2020).

Key:
[1] = molecular target: T1, CpeB (beta-subunit of phycoerythrin I) (Synechococcus sp. RS9916, UniProt Q05Q60); assay: LC-MS-MS of trypsin-digested purified protein after co-expression with lyases in E. coli; type: binding; conditions: covalent
T1 construct: with C-phycoerythrin class I alpha chain (phycoerythrin I alpha subunit)
Description: (§1) LC-MS-MS of trypsin-digested purified protein after co-expression with lyases in E. coli on CpeB (beta-subunit of phycoerythrin I)

[2] = molecular target: T2, CpeB (beta-subunit of phycoerythrin I) (Synechococcus sp. RS9916, UniProt Q05Q60, C61A); assay: as above; type: binding; conditions: covalent, same co-expression
T2 construct: with C-phycoerythrin class I alpha chain (phycoerythrin I alpha subunit)
Description: as §1

[3] = molecular target: T3, MpeB (beta-subunit of phycoerythrin II) (Synechococcus sp. RS9916, UniProt Q05Q49); assay: as above; type: binding; conditions: covalent
T3 construct: with C-phycoerythrin class II alpha chain (phycoerythrin II alpha subunit)
Description: LC-MS-MS of trypsin-digested purified protein after co-expression with lyases in E. coli on MpeB (beta-subunit of phycoerythrin II)

[4] = molecular target: T4, CpeB (beta-subunit of phycoerythrin I) (Synechococcus sp. RS9916, UniProt Q05Q60, C50A); assay: as above; type: binding
T4 construct: with C-phycoerythrin class I alpha chain (phycoerythrin I alpha subunit)
Description: LC-MS-MS of trypsin-digested purified protein after co-expression with lyases in E. coli on CpeB (beta-subunit of phycoerythrin I) | no peptide ions from the C50A mutant coexpressions modified with PUB at the C61 position

[5] = molecular target: T5, CpeS (Synechococcus sp. RS9916, UniProt Q05Q42); assay: co-expression in E. coli; absorbance, zinc-enhanced fluorescence and LC-MS-MS of purified CpeB; type: cell-based; conditions: protein co-substrate CpeB or MpeB, site C82; CpeZ enhances
T5 construct: recombinant, pCpeS plasmid; co-expressed in E. coli with bilin synthesis genes and phycoerythrin subunits; CpeS itself not assayed purified
T5 sequence (Q05Q42 1-178): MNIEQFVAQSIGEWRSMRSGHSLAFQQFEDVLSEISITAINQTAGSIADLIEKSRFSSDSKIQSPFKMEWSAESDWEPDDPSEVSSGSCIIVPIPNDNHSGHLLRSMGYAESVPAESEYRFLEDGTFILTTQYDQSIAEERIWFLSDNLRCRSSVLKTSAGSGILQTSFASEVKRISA

[6] = molecular target: T6, CpeB (beta-subunit of phycoerythrin I) (Synechococcus sp. RS9916, UniProt Q05Q60, C50A/C61A); assay: zinc-enhanced bilin fluorescence of gel bands over anti-CpeB western blot; type: binding; conditions: covalent, site C82, attached by CpeS, co-expressed with CpeA, MpeV, CpeZ and bilin synthesis genes
T6 construct: with C-phycoerythrin class I alpha chain (phycoerythrin I alpha subunit)
Description: zinc-enhanced bilin fluorescence of gel bands over anti-CpeB western blot on CpeB (beta-subunit of phycoerythrin I)

[7] = doubly linked at C50 and C61, attached by MpeV, same co-expression

| SMILES | β-50, 61 ^b / β-159 [1, 7] [%] | Bilin added ^a ([2]; single linkage by A ring at C50, attached by MpeV) [%] | β-50, 61 [3, 7] [%] | Bilin added ^a ([4]; covalent attachment at C61 tested, not detected, same co-expression) [%] | β-82 ^b / α-140 ([1]; site C82, attached by CpeS, co-expressed with CpeA, MpeV, CpeZ and bilin synthesis genes) [%] | Bilin added ^a ([2]; site C82, attached by CpeS) [%] | β-165 / β-82 ([3]; site C82, attached by CpeS, co-expressed with MpeA, MpeV, CpeZ and bilin synthesis genes) [%] | co-expression in E. coli; absorbance, zinc-enhanced fluorescence and LC-MS-MS of [5] | Bilin added ^a ([4]; covalent, site C82, attached by CpeS, co-expressed with CpeA, CpeS, MpeV, CpeZ and bilin synthesis genes) [%] | Percentage chromophorylation (% ± SD) ^b [6] |
| --- | --- | --- | --- | --- | --- | --- | --- | --- | --- | --- |
| C=CC1=C(C)[C@@H](CC2=N/C(=C\c3[nH]c(C[C@H]4NC(=O)C(C)=C4C=C)c(C)c3CCC(=O)O)C(CCC(=O)O)=C2C)NC1=O [PUB, phycourobilin] | 29.4 | 7.6 | 84.7 | 0 | – | – | – | – | – | – |
| C=CC1=C(C)C(CC2=NC(=Cc3[nH]c(C=C4NC(=O)C(C)C4=CC)c(C)c3CCC(=O)O)C(CCC(=O)O)=C2C)NC1=O (stereo not shown) [PEB, phycoerythrobilin] | – | – | – | – | 98.2 | 100 | 99.7 | The lyase CpeS is able to attach PEB to CpeB | 76.3 | 89.0 ± 12.3 % of WT |
